The term Ki denotes a dissociation constant, usually derived from enzyme kinetics or from competition with a known ligand. By inhibition is commonly meant the drop in the measured response relative to a control, in per cent.

Drawing on ChEMBL document CHEMBL5131517 (ACS Med Chem Lett, 2022), this text covers Ki and inhibition for four compounds.

In assay [1] the target is T1, 5-hydroxytryptamine receptor 2C (Homo sapiens, UniProt P28335).
T1 sequence (P28335 whole entry): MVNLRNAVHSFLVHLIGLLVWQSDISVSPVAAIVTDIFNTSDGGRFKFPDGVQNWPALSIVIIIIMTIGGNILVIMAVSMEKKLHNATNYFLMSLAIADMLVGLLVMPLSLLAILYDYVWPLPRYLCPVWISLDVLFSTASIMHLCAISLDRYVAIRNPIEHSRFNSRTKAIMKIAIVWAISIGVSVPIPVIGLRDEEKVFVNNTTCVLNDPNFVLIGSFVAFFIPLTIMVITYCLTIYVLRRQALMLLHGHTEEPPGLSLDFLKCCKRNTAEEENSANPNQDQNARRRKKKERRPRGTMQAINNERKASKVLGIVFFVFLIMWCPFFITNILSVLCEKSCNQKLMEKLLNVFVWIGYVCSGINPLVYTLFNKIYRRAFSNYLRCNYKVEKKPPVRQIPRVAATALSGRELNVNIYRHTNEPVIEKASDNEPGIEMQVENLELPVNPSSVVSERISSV
The assay is described as follows: Binding affinity to 5HT2C receptor (unknown origin) assessed as inhibition constant.

In assay [2] the target is 5-hydroxytryptamine receptor 7 (Homo sapiens, UniProt P34969). Nature of the assay: Binding affinity to 5HT7 receptor (unknown origin) assessed as inhibition constant.
In assay [3] the target is T2, Alpha-2C adrenergic receptor (Homo sapiens) (UniProt P18825).
T2 sequence (whole entry): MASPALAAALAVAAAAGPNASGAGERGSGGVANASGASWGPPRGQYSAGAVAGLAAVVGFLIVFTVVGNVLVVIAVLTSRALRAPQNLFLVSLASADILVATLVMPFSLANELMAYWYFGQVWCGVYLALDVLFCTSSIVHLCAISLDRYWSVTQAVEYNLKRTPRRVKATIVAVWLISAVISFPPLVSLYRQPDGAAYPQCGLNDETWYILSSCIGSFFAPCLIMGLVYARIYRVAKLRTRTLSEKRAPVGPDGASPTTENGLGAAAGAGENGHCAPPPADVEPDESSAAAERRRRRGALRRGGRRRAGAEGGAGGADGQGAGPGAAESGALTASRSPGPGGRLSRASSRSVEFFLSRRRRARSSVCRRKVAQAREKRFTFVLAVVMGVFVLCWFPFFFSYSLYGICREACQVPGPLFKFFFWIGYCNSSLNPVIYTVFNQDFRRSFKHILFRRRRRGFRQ
Nature of the assay: Inhibition of alpha2c (unknown origin). Particulars: concentration not given here.

Assay [4] concerns the target 5-hydroxytryptamine receptor 1D (Homo sapiens, UniProt P28221). The assay is described as follows: Binding affinity to 5HT1D receptor (unknown origin) assessed as inhibition constant.
Assay [5] deals with Sigma intracellular receptor 2 (Homo sapiens, UniProt Q5BJF2). Nature of the assay: Inhibition of sigma 2 receptor (unknown origin). The conditions noted are these: concentration not given here.
The target in assay [6] is T3, Alpha-2A adrenergic receptor (Homo sapiens) (UniProt P08913).
T3 sequence (whole entry): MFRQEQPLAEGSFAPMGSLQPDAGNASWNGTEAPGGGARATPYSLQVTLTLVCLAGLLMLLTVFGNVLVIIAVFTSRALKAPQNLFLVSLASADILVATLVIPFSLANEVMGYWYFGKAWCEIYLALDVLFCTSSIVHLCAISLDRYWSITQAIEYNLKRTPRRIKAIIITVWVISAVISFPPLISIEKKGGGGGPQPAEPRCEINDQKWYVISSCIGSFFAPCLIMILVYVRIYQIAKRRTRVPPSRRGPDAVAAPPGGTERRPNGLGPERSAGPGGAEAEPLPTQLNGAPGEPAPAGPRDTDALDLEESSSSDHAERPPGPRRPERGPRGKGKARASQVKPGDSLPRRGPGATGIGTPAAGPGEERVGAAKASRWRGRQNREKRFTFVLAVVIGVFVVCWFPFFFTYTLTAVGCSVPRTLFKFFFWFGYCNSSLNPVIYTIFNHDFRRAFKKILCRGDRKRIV
Nature of the assay: Inhibition of alpha2A receptor (unknown origin). The conditions noted are these: concentration not given here.

The target of assay [7] is D(1B) dopamine receptor (Homo sapiens) (UniProt P21918). Nature of the assay: Inhibition of D5 receptor (unknown origin). The conditions noted are these: concentration not given here.
Assay [8] deals with Histamine H1 receptor (Homo sapiens) (UniProt P35367). The assay is described as follows: Inhibition of H1 receptor (unknown origin). Particulars: concentration not given here.
Assay [9] addresses T4, Muscarinic acetylcholine receptor M1 (Homo sapiens) (UniProt P11229).
T4 sequence (whole entry): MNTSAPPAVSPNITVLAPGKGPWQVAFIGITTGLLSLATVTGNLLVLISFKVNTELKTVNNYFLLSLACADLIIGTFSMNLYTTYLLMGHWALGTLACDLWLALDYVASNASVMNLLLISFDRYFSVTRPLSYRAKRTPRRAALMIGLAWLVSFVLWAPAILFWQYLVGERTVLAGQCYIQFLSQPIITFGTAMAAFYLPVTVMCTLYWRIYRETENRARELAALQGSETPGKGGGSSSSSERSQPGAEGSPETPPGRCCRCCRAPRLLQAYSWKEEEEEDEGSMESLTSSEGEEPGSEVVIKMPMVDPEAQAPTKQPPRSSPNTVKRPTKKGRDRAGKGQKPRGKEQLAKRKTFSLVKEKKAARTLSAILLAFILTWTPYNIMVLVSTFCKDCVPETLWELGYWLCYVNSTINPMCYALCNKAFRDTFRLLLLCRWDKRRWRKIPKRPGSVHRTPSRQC
Nature of the assay: Inhibition of M1 receptor (unknown origin). Particulars: concentration not given here.

Assay [10] has as its target T5, Muscarinic acetylcholine receptor M2 (Homo sapiens) (UniProt P08172).
T5 sequence (whole entry): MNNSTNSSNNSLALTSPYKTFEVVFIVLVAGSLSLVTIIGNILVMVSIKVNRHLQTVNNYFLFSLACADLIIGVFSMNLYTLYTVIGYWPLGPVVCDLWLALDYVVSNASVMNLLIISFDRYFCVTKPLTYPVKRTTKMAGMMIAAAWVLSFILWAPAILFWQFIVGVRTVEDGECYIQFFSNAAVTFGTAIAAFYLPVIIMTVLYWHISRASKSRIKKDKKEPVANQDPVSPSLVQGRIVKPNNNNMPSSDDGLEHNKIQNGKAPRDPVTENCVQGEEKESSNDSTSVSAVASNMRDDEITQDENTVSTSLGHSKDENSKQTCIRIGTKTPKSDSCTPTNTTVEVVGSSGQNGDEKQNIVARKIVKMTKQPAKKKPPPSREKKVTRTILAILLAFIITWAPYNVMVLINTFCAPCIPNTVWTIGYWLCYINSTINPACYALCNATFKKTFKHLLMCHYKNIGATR
Nature of the assay: Inhibition of M2 receptor (unknown origin). Particulars: concentration not given here.

The target of assay [11] is Translocator protein (Homo sapiens) (UniProt P30536). The assay is described as follows: Inhibition of peripheral benzodiazepine receptor (unknown origin). The conditions noted are these: concentration not given here.
Translocator protein (Homo sapiens), sequence (P30536 whole entry): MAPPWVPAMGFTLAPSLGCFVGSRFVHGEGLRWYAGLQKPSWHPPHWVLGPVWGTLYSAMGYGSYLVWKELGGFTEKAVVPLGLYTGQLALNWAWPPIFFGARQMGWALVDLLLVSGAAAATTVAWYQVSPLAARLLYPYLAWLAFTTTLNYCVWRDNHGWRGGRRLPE

Histamine H1 receptor (Homo sapiens), sequence (P35367 whole entry): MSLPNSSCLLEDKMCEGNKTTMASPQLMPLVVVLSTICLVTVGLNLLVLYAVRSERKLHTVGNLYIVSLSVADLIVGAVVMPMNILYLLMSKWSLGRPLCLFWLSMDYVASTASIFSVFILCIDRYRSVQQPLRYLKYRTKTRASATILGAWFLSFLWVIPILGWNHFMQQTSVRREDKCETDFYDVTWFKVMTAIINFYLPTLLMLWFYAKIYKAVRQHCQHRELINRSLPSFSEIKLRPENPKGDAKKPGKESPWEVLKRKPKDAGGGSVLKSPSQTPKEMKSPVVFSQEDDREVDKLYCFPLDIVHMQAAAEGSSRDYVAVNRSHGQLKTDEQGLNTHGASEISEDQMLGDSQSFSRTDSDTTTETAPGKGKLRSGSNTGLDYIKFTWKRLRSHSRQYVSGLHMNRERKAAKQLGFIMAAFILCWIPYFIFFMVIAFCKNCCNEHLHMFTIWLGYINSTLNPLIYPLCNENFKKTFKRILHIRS
D(1B) dopamine receptor (Homo sapiens), sequence (P21918 whole entry): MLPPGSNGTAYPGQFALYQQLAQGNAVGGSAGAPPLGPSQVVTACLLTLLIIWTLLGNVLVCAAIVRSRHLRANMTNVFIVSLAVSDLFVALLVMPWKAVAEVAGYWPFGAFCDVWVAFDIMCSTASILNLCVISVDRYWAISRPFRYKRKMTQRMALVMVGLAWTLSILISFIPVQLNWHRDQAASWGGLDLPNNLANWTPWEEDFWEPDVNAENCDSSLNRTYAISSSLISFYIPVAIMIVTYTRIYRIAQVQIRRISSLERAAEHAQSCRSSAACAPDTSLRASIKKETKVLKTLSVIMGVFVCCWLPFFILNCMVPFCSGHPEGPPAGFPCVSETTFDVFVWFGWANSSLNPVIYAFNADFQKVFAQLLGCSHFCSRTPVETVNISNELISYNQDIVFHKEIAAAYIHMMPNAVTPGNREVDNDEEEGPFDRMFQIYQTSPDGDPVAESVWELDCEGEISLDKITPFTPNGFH
5-hydroxytryptamine receptor 1D, sequence (P28221 whole entry): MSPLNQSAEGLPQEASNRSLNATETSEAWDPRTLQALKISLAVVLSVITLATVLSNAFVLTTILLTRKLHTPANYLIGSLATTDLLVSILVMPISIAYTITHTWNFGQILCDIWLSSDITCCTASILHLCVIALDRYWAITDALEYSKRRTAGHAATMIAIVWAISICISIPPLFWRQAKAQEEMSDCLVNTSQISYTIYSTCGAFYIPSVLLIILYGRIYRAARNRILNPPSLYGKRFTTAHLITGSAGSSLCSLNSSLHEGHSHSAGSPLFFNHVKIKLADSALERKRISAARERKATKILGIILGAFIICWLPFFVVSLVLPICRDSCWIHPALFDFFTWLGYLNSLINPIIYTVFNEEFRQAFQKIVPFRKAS
Sigma intracellular receptor 2, sequence (Q5BJF2 whole entry): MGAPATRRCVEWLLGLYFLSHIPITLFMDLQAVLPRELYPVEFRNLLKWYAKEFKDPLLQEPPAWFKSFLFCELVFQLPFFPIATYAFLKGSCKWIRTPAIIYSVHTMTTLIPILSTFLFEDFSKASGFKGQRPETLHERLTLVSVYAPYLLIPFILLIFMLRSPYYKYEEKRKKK
5-hydroxytryptamine receptor 7, sequence (P34969 whole entry): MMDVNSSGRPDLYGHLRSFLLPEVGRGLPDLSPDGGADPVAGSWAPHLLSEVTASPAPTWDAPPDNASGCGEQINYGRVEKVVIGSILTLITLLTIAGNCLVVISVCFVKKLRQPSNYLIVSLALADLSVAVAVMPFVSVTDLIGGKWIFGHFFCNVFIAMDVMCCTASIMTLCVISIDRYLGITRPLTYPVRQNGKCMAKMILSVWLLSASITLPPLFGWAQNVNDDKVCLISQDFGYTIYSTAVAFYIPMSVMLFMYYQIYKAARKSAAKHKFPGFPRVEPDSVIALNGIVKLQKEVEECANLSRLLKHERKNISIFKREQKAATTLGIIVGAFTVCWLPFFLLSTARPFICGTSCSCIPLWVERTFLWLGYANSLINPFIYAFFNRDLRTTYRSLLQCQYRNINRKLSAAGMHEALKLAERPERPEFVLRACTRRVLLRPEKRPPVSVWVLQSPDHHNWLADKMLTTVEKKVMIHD

On to `COc1ccc(C2NCCc3c2[nH]c2ccc(Cl)cc32)c(O)c1` (configuration not stated), for which the inhibition constant (Ki) in assay [1] worked out at 35.9 nM; in assay [2], 7.98 nM; in assay [4], 31.5 nM. Further, the inhibition in assay [3], in [5], in assay [6], in assay [7], in assay [8] and in [9] was less than 50% throughout. The inhibition in [10] and in assay [11] was less than 50% in each case.

Turning to `COc1cc(OC)c(C2NCCc3c2[nH]c2ccc(Cl)cc32)cc1OC` (configuration not stated), the Ki in [1] stood at 25.2 nM; in assay [2], 2.5 nM; in assay [4] it was 38.8 nM. For the same compound, the inhibition in assay [3], in assay [5], in assay [6], in [7], in [8] and in [9] was less than 50% in each case. In addition, the inhibition in assay [10] and in [11] was less than 50% each time.

For `COc1ccc(C2NCCc3c2[nH]c2ccc(F)cc32)c(O)c1` (configuration not stated), the values for the inhibition constant (Ki) in assay [1], in assay [2] and in [4] were 49.8 nM, 25.4 nM and 110 nM, respectively. For the same compound, the inhibition in assay [3], in assay [5], in assay [6], in assay [7], in assay [8] and in [9] was less than 50% each time. Also, the inhibition in assay [10] and in [11] was less than 50% throughout.

With `COc1cc(OC)c(C2NCCc3c2[nH]c2ccc(F)cc32)cc1OC` (configuration not stated), the inhibition constant (Ki) in assay [1] turned out to be 671 nM; in [2] it was 249 nM; in assay [4], 660 nM. The inhibition in assay [6], in [7], in assay [8], in [9], in [10] and in assay [11] was less than 50% throughout.
